ChEMBL document CHEMBL1949518, “Synthesis and biological evaluation of some new 2-pyrazolines bearing benzene sulfonamide moiety as potential anti-inflammatory and anti-cancer agents” (Eur J Med Chem, 2011)

Key:
Rattus norvegicus [1] = assay: Antiinflammatory activity in Wistar rat assessed as inhibition of carrageenan-induced paw edema at 20 mg/kg, po administered 30 mins before carrageenan challenge measured after 3 hrs; format: functional
Rattus norvegicus [2] = assay: Antiinflammatory activity in Wistar rat assessed as inhibition of carrageenan-induced paw edema at 20 mg/kg, po administered 30 mins before carrageenan challenge measured after 5 hrs; format: functional
Mus musculus [3] = assay: Toxicity in Swiss albino mouse assessed as mortality at 100 mg/kg, po measured up to 24 hrs; format: organism-based; set-up: dose 100 mg/kg, route oral; conditions: in vivo
Mus musculus [4] = assay: Toxicity in Swiss albino mouse assessed as behavioral change at 100 mg/kg, po measured up to 24 hrs; format: organism-based; set-up: dose 100 mg/kg, route oral; conditions: in vivo
Rattus norvegicus [5] = assay: Ulcerogenic activity in fasted Wistar albino rat at 60 mg/kg, po administered as 3 dose measured after 6 hrs post last dose; format: toxicity, organism-based; set-up: dose 60 mg/kg, route oral; conditions: in vivo
[6] = biological target: Prostaglandin G/H synthase 1 (Bos taurus, UniProt O62664); assay: Inhibition of bovine COX1 assessed as PGE2 formation preincubated for 10 mins by ELISA
Sequence of Prostaglandin G/H synthase 1 (O62664 whole entry): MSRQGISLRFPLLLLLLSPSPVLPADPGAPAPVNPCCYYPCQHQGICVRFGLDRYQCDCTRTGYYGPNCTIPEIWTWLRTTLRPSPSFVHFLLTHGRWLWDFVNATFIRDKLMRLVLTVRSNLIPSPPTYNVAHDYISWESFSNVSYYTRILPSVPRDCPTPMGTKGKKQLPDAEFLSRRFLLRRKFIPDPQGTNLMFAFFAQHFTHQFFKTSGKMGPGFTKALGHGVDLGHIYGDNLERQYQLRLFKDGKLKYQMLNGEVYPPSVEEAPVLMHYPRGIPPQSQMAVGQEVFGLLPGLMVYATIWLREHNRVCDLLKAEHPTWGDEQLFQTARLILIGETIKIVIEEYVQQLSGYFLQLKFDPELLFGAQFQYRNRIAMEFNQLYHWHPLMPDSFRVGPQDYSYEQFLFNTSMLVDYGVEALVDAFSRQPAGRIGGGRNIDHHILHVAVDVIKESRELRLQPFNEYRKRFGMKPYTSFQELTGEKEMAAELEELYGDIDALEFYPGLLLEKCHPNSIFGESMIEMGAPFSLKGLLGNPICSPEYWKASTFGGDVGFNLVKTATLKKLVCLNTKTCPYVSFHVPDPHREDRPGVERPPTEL

SMILES	inhibition in vivo at 20 mg/kg (Rattus norvegicus [1]) [%]	inhibition in vivo at 20 mg/kg (Rattus norvegicus [2]) [%]	Activity (Mus musculus [3])	Activity (Mus musculus [4])	Activity (Rattus norvegicus [5])	IC50 [6] [µM]
Cc1cc(O)c(C2=NN(c3ccc(S(N)(=O)=O)cc3)C(c3ccccc3)C2)c(C)c1Cl (stereo unspecified)	20	36.4	–	–	–	–
Cc1cc(O)c(C2=NN(c3ccc(S(N)(=O)=O)cc3)C(c3ccccc3Cl)C2)c(C)c1Cl (stereo unspecified)	53	45.5	–	–	–	–
Cc1cc(O)c(C2=NN(c3ccc(S(N)(=O)=O)cc3)C(c3ccccc3O)C2)c(C)c1Cl (stereo unspecified)	79	75	Non-toxic	Non-toxic	Non-toxic	65.4
COc1ccc(C2CC(c3c(O)cc(C)c(Cl)c3C)=NN2c2ccc(S(N)(=O)=O)cc2)cc1OC (stereo unspecified)	26.7	45.5	–	–	–	–
COc1cc(C2CC(c3c(O)cc(C)c(Cl)c3C)=NN2c2ccc(S(N)(=O)=O)cc2)cc(OC)c1OC (stereo unspecified)	68.4	75	–	–	–	–
Cc1ccc(-c2cc(C(F)(F)F)nn2-c2ccc(S(N)(=O)=O)cc2)cc1 [CELECOXIB]	79.6	82	–	–	–	–
